What was measured:
[1] = target: T1, Fatty acid-binding protein 5-ANS (Mus musculus, UniProt Q05816); test: Fluorescence Competition Assay
T1 sequence (Q05816 whole entry): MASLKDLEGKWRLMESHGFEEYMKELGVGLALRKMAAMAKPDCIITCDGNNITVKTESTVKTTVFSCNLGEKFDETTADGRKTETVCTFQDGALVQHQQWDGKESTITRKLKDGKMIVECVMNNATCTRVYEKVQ
Description: (§1) The method entails two steps [Lin et al., Biochemistry, 38:185-190]. In the first step, the Kd for association of FABP5 with the fluorescent lipid probe anilinonaphtalene-8-sulfonic acid (ANS) was measured by fluorescence titrations. Kd values for nonfluorescent ligands were then measured by monitoring their ability to compete with the probe for binding. FABP5 was precomplexed with ANS and titrated with ligands. Ligand binding was followed by monitoring the decrease in fluorescence upon displacement of the probe from the protein.

[2] = target: T2, Fatty acid-binding protein 5 (Mus musculus, UniProt Q05816); test: Fluorescence Competition Assay
T2 sequence (Q05816 whole entry): T1 sequence (Q05816 whole entry)
Description: as §1

Kd [2] [nM]	SMILES	Kd [1] [nM]
	CCCCC/C=C\C/C=C\C/C=C\C/C=C\CCCC(=O)NCCO [Arachidonoyl ethanolamide]	100
	CCCCC/C=C\C/C=C\C/C=C\C/C=C\CCCC(=O)O [[1-14C]Arachidonic acid]	42.1
70	O=S(=O)(O)c1cccc2cccc(Nc3ccccc3)c12 [ANS]	
